Where a name gives a salt, the structure may show the parent alone.

In series [1] the test system is MK-801-treated mice. In words: Visual discrimination test in MK-801-treated mice.
Another series concerns C57BL/6 mice. In words: Spontaneous locomotor activity. It counts as in vivo. The protocol:
(§1) Mice were placed one by one in measurement cages (25 cm×30 cm×18 cm). Immediately after the placement, spontaneous locomotor activity of mice was measured using a measurement device equipped with infrared light (Brain Science Idea, Osaka, Japan) (Ibi et al., 2010).

Series [2] has as its system MK-801-treated mice. In words: MK-801-induced hyperactivity (hypermobility). It counts as in vivo. Conditions: MK-801 0.3 mg/kg. The protocol: as §1
After 5 minutes, MK-801 (0.3 mg/kg) was intraperitoneally administered. The amount of locomotor activity started to be measured immediately after the administration (FIG. 6, panel A).

The next series has as its system ARHGAP10 mutant mice. As to the kind of experiment: Meth-induced visual discrimination learning impairment in ARHGAP10 mutant mice. It counts as in vivo. As to conditions: patient-type ARHGAP10 mutant mice.
Series [3] has as its system MK-801-treated mice. As to the kind of experiment: Social behavior test in MK-801-treated mice. It counts as in vivo. The protocol: Before conducting the experiment, test mice were kept in breeding cages one by one for 2 days. On the third day, mice that had been normally group-reared in another breeding cage were placed as invading mice into the cages of the test mice, and social behaviors of the test mice, such as tracking and sniffing, were measured for 5 minutes (Ibi et al., 2010).

Series [4] relates to Meth-treated mice (C57BL/6). In words: Meth-induced visual discrimination learning impairment in C57BL/6 mice (wild type). It counts as in vivo. As to conditions: for Meth-induced (1.0 mg/kg) visual discrimination impairment: meth-treated C57BL/6 mice.
Series [5] deals with dopaminergic neurons induced from iPS cells of patients with ARHGAP10 mutation. As to the kind of experiment: Neurite length of iPS cell-derived dopaminergic neurons (IncuCyte NeuroTrack). It counts as cell-based, human. Conditions: 72 hours after addition of inhibitor. The protocol:
Dopaminergic neurons were induced from iPS cells of healthy subjects and patients with ARGHAP10 mutation. The induction method was performed according to a method already published (Transl Psychiatry. 2018 Jul. 19; 8(1): 129; and patent application PCT/JP2018/015304). To give an overview, iPS cells were cultured in an iPS cell medium supplemented with SB431542 (3 μM), CHIR99021 (3 μM), and dorsomorphin (3 μM) for 7 days (day 0 to day 7). The cultured cells were then dispersed with TrypLE™ select (Thermo Fisher Scientific Inc.) and passed through a cell strainer. […]
Dopaminergic progenitor cells were seeded onto a culture dish coated with poly-L-ornithine/laminin/fibronectin (poly-L-ornithine, laminin, and fibronectin), and an Rho kinase inhibitor was added simultaneously. […] The length of neurites after 72 hours was automatically measured with IncuCyte NeuroTrack (registered trademark).
Dopaminergic neurons were induced from iPS cells derived from healthy subjects and patients with ARHGAP10 mutation. […] The length of neurites was automatically detected and measured with IncuCyte (registered trademark) NeuroTrack (produced by Essen Bioscience).
The length of neurites (mm) per mm^2 was calculated for each field of view, and analysis was performed for 18 fields of view in each group. […]

Where [6] appears, read: fasudil 20 mg/kg i.p., listed as Fasudil, monohydrochloride hemihydrate.
Setting [7] is: fasudil 20 mg/kg i.p., monohydrochloride hemihydrate.

For the compound `O=S(=O)(c1cccc2cnccc12)N1CCCNCC1` [fasudil, hexahydro-1-(5-isoquinolinesulfonyl)-1H-1,4-diazepine monohydrochloride hemihydrate], the “MK-801-induced (1.0 mg/kg) visual discrimination disorder” value with MK-801-treated mice [1] (fasudil 3 mg/kg i.p.) is given as “±”; with MK-801-treated mice [1] (setting [6]), “Improved”; in the series on MK-801-treated mice [1] (setting [7]) it was “returned to the control level”. Moreover, in the series on MK-801-treated mice [1] (fasudil 3, 10 or 20 mg/kg i.p., MK-801-treated mice), the “test completion rate, latency to correct response, latency to obtain the reward” value was “none of the groups showed significant changes”. Besides, the Spontaneous locomotor activity result in the series on C57BL/6 mice (fasudil 20 mg/kg i.p., Table 1) is “±”; with C57BL/6 mice (fasudil 20 mg/kg i.p., versus saline-treated mice) it was “same level of spontaneous locomotor activity as the saline-treated mice”; in the series with C57BL/6 mice (fasudil 30 mg/kg i.p., versus saline-treated mice, listed as Fasudil, monohydrochloride hemihydrate), “Decreased”; in the series on C57BL/6 mice (fasudil 30 mg/kg i.p., versus saline-treated mice, monohydrochloride hemihydrate), “significant decrease”. In addition, the MK-801-induced hypermobility result with MK-801-treated mice [2] (fasudil 10 mg/kg i.p.) is reported as “±”; in the series on MK-801-treated mice [2] (setting [6]) it was “Improved”; in the series with MK-801-treated mice [2] (setting [7]) it was “significantly inhibited”. The “Meth-induced (0.3 mg/kg) visual discrimination impairment” value in the series on ARHGAP10 mutant mice (fasudil 3 mg/kg i.p.) is recorded as “Improved”; in the series with ARHGAP10 mutant mice (fasudil 10 mg/kg i.p.), “Improved”; in the series on ARHGAP10 mutant mice (setting [7]) it was “significantly improved”. For the same compound, the “MK-801-induced social behavior disorder” value with MK-801-treated mice [3] (fasudil 5 mg/kg i.p., MK-801 0.1 mg/kg) is listed as “±”; in the series on MK-801-treated mice [3] (fasudil 10 mg/kg i.p., MK-801 0.1 mg/kg, listed as Fasudil, monohydrochloride hemihydrate) it was “Improved”; in the series on MK-801-treated mice [3] (fasudil 10 mg/kg i.p., MK-801 0.1 mg/kg, monohydrochloride hemihydrate), “returned to the same level as the social behavior in control mice”; in the series with MK-801-treated mice [3] (fasudil 20 mg/kg i.p.) it was “±”. In addition, the “Meth-induced (1.0 mg/kg) visual discrimination impairment” value in series [4] (fasudil 3 mg/kg i.p.) is on record as “Improvement”; in series [4] (fasudil 10 mg/kg i.p., listed as Fasudil, monohydrochloride hemihydrate) it was “Improved”; in series [4] (fasudil 10 mg/kg i.p., monohydrochloride hemihydrate) it was “improved”; in series [4] (setting [6]) it was “Improved”; in series [4] (setting [7]) it was “improved”. The length of neurites entry in series [5] is recorded as “improving effects”.
Regarding Methamphetamine hydrochloride, the “correct response rate in the visual discrimination learning test” value in series [4] (meth 1.0 mg/kg, C57BL/6 mice, saline-treated about 90%) is recorded as “about 70%”.
Turning to `C[C@]12N[C@H](Cc3ccccc31)c1ccccc12` [MK-801, (+)-MK-801 maleate], the “correct response rate in the visual discrimination learning test” value in the series with MK-801-treated mice [1] (MK-801 0.1 mg/kg i.p., C57BL/6 mice, saline-treated 90%) was “about 70%”. In the series on MK-801-treated mice [3] (MK-801 0.1 mg/kg i.p., compared with control mice), the “time of social behavior” value is given as “significantly reduced”.
